{"source": "ChEMBL document CHEMBL3856207", "about": "“Kinetic, thermodynamic and structural analysis of tamiphosphor binding to neuraminidase of H1N1 (2009) pandemic influenza” (Eur J Med Chem, 2016)", "note": "The source made the active and inactive calls. The calls are words filed in the database; no cut-off is given here."}
{"system": "not listed separately", "assay": "Inhibition of Influenza A virus (A/California/07/2009(H1N1)) recombinant wild type N-terminal FLAG-tagged neuraminidase ectodomain (82 to 469 residues) transfected in Drosophila Schneider S2 cells using 4-MUNANA as substrate after 20 mins by fluorometric method", "units": {"Ki": "nM"}}
{"smiles": "CCC(CC)O[C@@H]1C=C(P(=O)(O)O)C[C@H](NC(=N)N)[C@H]1NC(C)=O", "Ki": 140}
{"smiles": "CCC(CC)O[C@@H]1C=C(P(=O)(O)OC)C[C@H](N)[C@H]1NC(C)=O", "Ki": 39}
{"smiles": "CCC(CC)O[C@@H]1C=C(C(=O)O)C[C@H](NC(=N)N)[C@H]1NC(C)=O", "Ki": 46}
{"smiles": "CCC(CC)O[C@@H]1C=C(P(=O)(O)O)C[C@H](N)[C@H]1NC(C)=O", "note": "[TAMIPHOSPHOR]", "Ki": 26}
{"system": "S2", "assay": "Binding affinity to Influenza A virus (A/California/07/2009(H1N1)) recombinant wild type N-terminal FLAG-tagged neuraminidase catalytic domain transfected in Drosophila Schneider S2 cells at 76 to 93 uM by isothermal titration calorimetric method"}
{"smiles": "CCC(CC)O[C@@H]1C=C(C(=O)O)C[C@H](N)[C@H]1NC(C)=O", "note": "[OSELTAMIVIR CARBOXYLATE]", "Activity": "Active"}
{"smiles": "CCC(CC)O[C@@H]1C=C(P(=O)(O)O)C[C@H](N)[C@H]1NC(C)=O", "note": "[TAMIPHOSPHOR]", "Activity": "Active"}
